The values that follow come from ChEMBL document CHEMBL1159365, “Sesquiterpenoids from Artemisia gilvescens and an anti-MRSA compound” (J Nat Prod, 2003).

Each structure is given as a SMILES string. In brackets after ≈: the same amount, converted by molar mass.

The subject of test [1] is HCT-116. As to the kind of experiment: Cytotoxicity against human HCT116 cells by MTT assay. It is filed as functional, cell-based. For orientation: Formazan colour is commonly taken as a measure of viable cells.
Test [2] concerns Staphylococcus aureus. As to the kind of experiment: Antimicrobial activity against methicillin-resistant Staphylococcus aureus after 20 hrs. Format: functional.

With `C=C1C(=O)O[C@H]2[C@H]1CC[C@@](C)(O)[C@]13O[C@H]1[C@H]1O[C@@]1(C)[C@H]23` [ARTECANIN], in test [1], 14 µM corresponded to half-maximal inhibition (IC50).
On to `C=C1C(=O)O[C@H]([C@H]2C(=O)C=C[C@@]2(C)O)[C@H]1CCC(C)=O`, for which it took 6 µM to reach half-maximal inhibition in test [1] (IC50).
On to `CC1=CC(=O)c2c(C)cc3oc(=O)c(C)c-3cc21`, for which the IC50 (usually the midpoint of a concentration-inhibition curve) in test [1] came to 16 µM. Further, it took 1.95 µg/mL (≈ 8.12 µM) to inhibit growth in test [2] (MIC).
Consider `C=C1C(=O)O[C@H]([C@@H]2C(=O)C=C[C@]2(C)O)[C@H]1CCC(C)=O` [SECOTANAPARTHOLIDE B], for which the 50% inhibitory concentration (IC50) in test [1] is 3.3 µM.
`C=C1C(=O)O[C@H]([C@@H]2C(=O)C=C[C@@]2(C)O)[C@H]1CCC(C)=O` [SECOTANAPARTHOLIDE A] gave an IC50 in test [1] of 6 µM.
On the same count and under the same terms, for `C=C1C(=O)O[C@H](C2=C(C)[C@@H](O)CC2=O)[C@H]1CCC(C)=O` [ISOSECOTANAPARTHOLIDE] the value was 13 µM.
